This note sets out measurements from patent US8465947B2, “Lantibiotic biosynthetic gene clusters from A. garbadinensis and A. liguriae” (Novacta Biosystems Limited, priority 2006, dated 2013).

This assay relates to C. difficile. As to the kind of experiment: MIC against C. difficile, NCCLS agar dilution method for anaerobic bacteria. The format is cell-based, Clostridium difficile. To be noted: calcium 50 μg/ml. How it is done: Minimum inhibitory concentrations (MICs) for C. difficile were determined and antimicrobial agent stock solutions were prepared and stored according to the NCCLS reference agar dilution method for anaerobic bacteria (M11-A5, 2001). Two-fold serial antibiotic dilutions were prepared in Wilkens-Chalgren agar (WCA). Test organisms were selected from 48 hour growth on Braziers (C.C.E.Y.) agar, subcultured in Schaedler broth to a density equivalent to a McFarland 0.5 standard (1×10^8 CFU/ml), with a final inoculum onto WCA plates of approximately 10^5 CFU/spot. Bacteroides fragilis ATCC 25285 was included as a reference control strain and Metronidazole was used as a reference antibiotic for quality control. All manipulations were performed in duplicate in ambient atmosphere in pre-reduced media with only brief exposure to oxygen. Plates were incubated anaerobically for 48 hours at 37° C. with the MIC defined as the concentration of drug where a marked reduction occurred in the appearance of growth on the test plate compared to growth on the anaerobic control plate.
Culture media were supplemented with calcium ions (as calcium chloride) at 50 μg/ml except where higher concentrations are indicated.

≈ marks a conversion by molar mass, not a printed value.

As for `CC[C@H](C)[C@@H]1NC(=O)[C@@H]2NC(=O)[C@H](CC(C)C)NC(=O)[C@H](NC(=O)[C@@H]3CSC[C@@H](NC(=O)[C@@H](N)Cc4c[nH]c5ccccc45)C(=O)N[C@@H](CO)C(=O)NCC(=O)N[C@@H](Cc4c[nH]c5ccccc45)C(=O)N[C@@H](C(C)C)C(=O)N3)[C@H](C)SC[C@H](NC(=O)[C@H](CCC(=O)O)NC1=O)C(=O)NCC(=O)N[C@H]1C(=O)N[C@@H](CC(C)C)C(=O)N[C@@H](C(C)C)C(=O)N[C@@H](CS[C@H]2C)C(=O)N[C@@H](C)C(=O)N[C@H](C(=O)O)CS[C@H]1C` [Compound IX, L-Tryp(0)deoxyactagardine B], the “MIC C. difficile 19126” value is 2 µg/mL (≈ 0.971 µM) and the “MIC C. difficile 37779” value came to 1 µg/mL (≈ 0.485 µM).

Take `CC[C@H](C)[C@@H]1NC(=O)[C@@H]2NC(=O)[C@H](CC(C)C)NC(=O)[C@H](NC(=O)[C@@H]3CSC[C@@H](NC(=O)[C@@H](N)C(C)C)C(=O)N[C@@H](CO)C(=O)NCC(=O)N[C@@H](Cc4c[nH]c5ccccc45)C(=O)N[C@@H](C(C)C)C(=O)N3)[C@H](C)SC[C@H](NC(=O)[C@H](CCC(=O)O)NC1=O)C(=O)NCC(=O)N[C@H]1C(=O)N[C@@H](CC(C)C)C(=O)N[C@@H](C(C)C)C(=O)N[C@@H](CS[C@H]2C)C(=O)N[C@@H](C)C(=O)N[C@H](C(=O)O)CS[C@H]1C` [Compound VI, L-Val(0)deoxyactagardine B]: the “MIC C. difficile 19126” value is 8 µg/mL (≈ 4.05 µM) and the “MIC C. difficile 37779” value amounted to 8 µg/mL (≈ 4.05 µM).
